Results from paper PMC6413024, “Multimerization Increases Tumor Enrichment of Peptide–Photosensitizer Conjugates” (Molecules, 2019).

What was measured:
[1] = cited from earlier work
Text: (§1) Pyro is a very promising photosensitizer with ideal photoactivity properties, including a high extinction coefficient (3.79 × 10^4 L mol^−1 cm^−1) and a high singlet oxygen quantum yield (over 50%). […] Solving the tumor enrichment problem is very important for its clinical application. Here, to further increase the affinity of RGD peptide-coupled Pyro conjugates to the receptor αvβ3 integrin, we synthesized multimeric RGD-coupled Pyro conjugates to increase the affinity via multivalent and cluster effects, thereby improving the upt ...

tumors in a mouse model = settings: general statement on Pyro; no reference given at the statement; cited from earlier work
Text: as §1

[2] = UV–Vis absorption and fluorescence spectra in DMSO; assay type: physicochemical; settings: for λmax: UV–Vis absorption in DMSO, Q-band, recorded from 300 to 800 nm; for λem: fluorescence emission in DMSO, Hitachi F-4500, 2.0 µM, excitation at approximately 668 nm; for Stokes Shift: in DMSO
Protocol: (§2) The UV–Vis absorption spectra and fluorescence spectra of the synthesized conjugates of Pyro-MonoRGD, Pyro-DiRGD, Pyro-TriRGD, and free Pyro were measured in DMSO. Absorption spectra were recorded from 300 to 800 nm. Fluorescence emission and excitation spectra were recorded from 550 to 800 nm upon excitation at approximately 668 nm and emission at 672–673 nm using a Hitachi model F-4500 FL spectrophotometer (Tokyo, Japan). The singlet oxygen quantum yields (ΦΔ) of the conjugates were measured in DMSO using DPBF as the quencher and Pyro as the reference.

[3] = Singlet oxygen quantum yield in DMSO; assay type: physicochemical; settings: DPBF as the quencher and Pyro as the reference
Protocol: as §2

U87-MG tumor [4] = assay type: in vivo, Balb/c nude mice; human U87-MG cells; settings: 50 nmol/mouse i.v.; mice euthanized 2 h postinjection; vs the other two conjugates; triplicates
Protocol: To further verify the tumor targeting ability of these conjugates, the mice were euthanized 2 h postinjection, and their organs were collected for imaging. As shown in Figure 3B (heart, liver, spleen, lungs, and tumor from left to right), when the valence of the conjugates increased, the fluorescence signal in the tumor region increased.
(§3) Human U87-MG cells (4 × 10^6 cells/mouse) were subcutaneously inoculated on the axilla of female Balb/c nude mice. When the tumors grew to 200 mm^3, the mice were divided into three groups with each group containing three mice. The mice were then intravenously injected with 50 nmol/mouse of Pyro-MonoRGD, Pyro-DiRGD, and Pyro-TriRGD, respectively. In vivo fluorescence analysis was performed before and after the injection at various time points using the IVIS Lumina imaging system (IVIS Lumina II, Xenogen, USA) with a Cy5.5 filter (excitation: 615–665 nm, emission: 695–770 nm). Alternatively, the mice were euthanized at 2 h postinjection, and major organs, including the heart, liver, spleen, lungs, kidneys, and muscles, as well as the tumor, were collected; fluorescence images were then acquired.

[5] = biological target: human isolated αvβ3 integrin receptors (ITGAV&ITGB3 heterodimer) (Homo sapiens, UniProt P05106+P06756); assay: Receptor binding assay: competitive inhibition of biotinylated vitronectin binding to αvβ3 integrin; settings: for IC50: biotinylated vitronectin 2.0 μg/mL, integrin 2.0 μg/mL in PBS pH 7.4, 4 °C overnight, test compounds 10^−3 to 10^−11 M, 3 h, 37 °C shaker, streptavidin–HRP/TMB, absorbance 450 nm, nonlinear regression GraphPad Prism 5.0, means ± SD of triplicate determinations
Protocol: Human integrin αvβ3 (ITGAV&ITGB3) heterodimer protein was diluted to 2.0 μg/mL in PBS buffer (pH 7.4) and was then added to a 96-well plate (100 μL/well) and incubated overnight at 4 °C. The plate was blocked with 10% milk solution for an additional 2 h in a 37 °C shaker, followed by a 3 h incubation in the 37 °C shaker with various concentrations (10^−3 to 10^−11 M) of test compounds in the presence of biotinylated vitronectin (2.0 μg/mL). After washing, the plates were incubated for 1 h in the 37 °C shaker with streptavidin–HRP and then washed again, followed by 30 min of incubation with 100 μL/well TMB single-component substrate solution before stopping the reaction with the addition of 100 μL/well 2.0 N H2SO4. The absorbance at 450 nm was read on a microplate reader. Each data point represents the average of the triplicate wells, and data analysis was performed using nonlinear regression analysis with GraphPad Prism 5.0 software (GraphPad Software, Inc., San Diego, CA, USA.).

U87-MG tumor [6] = assay type: in vivo, Balb/c nude mice; human U87-MG cells
Text: To examine the tumor enrichment of these conjugates in vivo, we prepared a xenograft tumor model by subcutaneously inoculating mice with U87-MG tumor cells ([…]) on the axilla. U87-MG cells have high expression levels of the αvβ3 integrin receptor. When the tumors grew to approximately 200 mm^3 in volume, the conjugates (50 nmol per mouse) were intravenously injected into the mice via the tail vein. The fluorescence signal and intensity distribution were continuously monitored using an in vivo fluorescence imaging system (IVIS Lumina II, Xenogen, Alameda, CA, USA). […] However, relatively weak fluorescence signals in the tumor site could be detected. […] The increased water hydrophilicity of the divalent and trivalent conjugates may contribute to the reduction in the liver accumulation.
as §3, with “When the tumors grew to 200 mm^3, the mice were divided into three groups with each group containing three mice. The mice were then intravenously injected with 50 nmol/mouse of Pyro-MonoRGD, Pyro-DiRGD, and Pyro-TriRGD, respectively.” left out

αvβ3 integrin receptor = settings: compared with antibody molecules; no reference given at the statement; cited from earlier work
Text: However, compared with antibody molecules, small molecule ligands have a much weaker affinity to their receptors, which makes their tumor enrichment not always ideal. In our former work, we coupled a very promising photosensitizer, pyropheophorbide-a (Pyro), which has ideal photosensitizer properties, with a small molecule tumor homing ligand—cyclo(-RGDfK-)—to prepare a tumor-targeted conjugate. The cyclic peptide cyclo(-RGDfK-), which contains a conformationally restrained RGD sequence, has been often used for targeting tumor imaging and/or therapeutic agents as a high affinity ligand ...

Row | Compound | IC50 [5] | λmax [2] | λem [2] | Stokes Shift [2] | singlet oxygen quantum yield ΦΔ [3] | also measured
1 | C=Cc1c(C)c2cc3nc(c4c5[nH]c(cc6nc(cc1[nH]2)C(C)=C6CC)c(C)c5C(=O)C4)[C@@H](CCC(=O)O)[C@@H]3C [Pyro, pyropheophorbide-a, reference compound] | – | 668 nm | 673 nm | 5 nm | 0.52 | extinction coefficient [1]: 37900 L/mol/cm; singlet oxygen quantum yield [1]: over 50%; tumor localization ability (tumors in a mouse model): very limited tumor localization ability
2 | C=Cc1c(C)c2cc3nc(c4c5[nH]c(cc6nc(cc1[nH]2)C(C)=C6CC)c(C)c5C(=O)C4)[C@@H](CCC(=O)NC(COCCC(=O)NCCCOCCOCCOCCCNC(=O)C[C@@H]1NC(=O)[C@@H](Cc2ccccc2)NC(=O)[C@H](CC(=O)O)NC(=O)CNC(=O)[C@H](CCCNC(=N)N)NC1=O)COCCC(=O)NCCCOCCOCCOCCCNC(=O)C[C@@H]1NC(=O)[C@@H](Cc2ccccc2)NC(=O)[C@H](CC(=O)O)NC(=O)CNC(=O)[C@H](CCCNC(=N)N)NC1=O)[C@@H]3C (stereo partly drawn) [Pyro-DiRGD] | 313 ± 23.1 nM | 668 nm | 673 nm | 5 nm | 0.47 | –
3 | cyclo(-RGDfK-) | – | – | – | – | – | affinity to αvβ3 integrin receptor (αvβ3 integrin receptor): only has a moderate affinity to the αvβ3 integrin receptor

Further lines, with some results ahead:

Row | IC50 [5] | Compound | λmax [2] | λem [2] | Stokes Shift [2] | singlet oxygen quantum yield ΦΔ [3] | also measured
4 | 43.8 ± 8.2 nM | C=Cc1c(C)c2cc3nc(c4c5[nH]c(cc6nc(cc1[nH]2)C(C)=C6CC)c(C)c5C(=O)C4)[C@@H](CCC(=O)NC(COCCC(=O)NCCCOCCOCCOCCCNC(=O)C[C@@H]1NC(=O)[C@@H](Cc2ccccc2)NC(=O)[C@H](CC(=O)O)NC(=O)CNC(=O)[C@H](CCCNC(=N)N)NC1=O)(COCCC(=O)NCCCOCCOCCOCCCNC(=O)C[C@@H]1NC(=O)[C@@H](Cc2ccccc2)NC(=O)[C@H](CC(=O)O)NC(=O)CNC(=O)[C@H](CCCNC(=N)N)NC1=O)COCCC(=O)NCCCOCCOCCOCCCNC(=O)C[C@@H]1NC(=O)[C@@H](Cc2ccccc2)NC(=O)[C@H](CC(=O)O)NC(=O)CNC(=O)[C@H](CCCNC(=N)N)NC1=O)[C@@H]3C (stereo partly drawn) [Pyro-TriRGD] | 668 nm | 673 nm | 5 nm | 0.48 | fluorescence intensity in excised tumor, 2 h postinjection (U87-MG tumor [4]): the highest fluorescence intensity at the tumor site; binding to integrin αvβ3, fold better than Pyro-DiRGD ([5]; ratio vs divalent Pyro-DiRGD): 7 -fold; binding to integrin αvβ3, fold better than Pyro-MonoRGD ([5]; ratio vs monovalent Pyro-MonoRGD): 20 -fold; tumor accumulation, 2–6 h postinjection (U87-MG tumor [6]; 50 nmol/mouse i.v., 2–6 h postinjection): excellent tumor accumulation at 2–6 h postinjection; tumor enrichment, overall comparison (U87-MG tumor [6]; compared with the other two conjugates): had the best tumor enrichment compared with the other two conjugates
5 | 951 ± 39.6 nM | C=Cc1c(C)c2cc3nc(c4c5[nH]c(cc6nc(cc1[nH]2)C(C)=C6CC)c(C)c5C(=O)C4)[C@@H](CCC(=O)NCCCOCCOCCOCCCNC(=O)C[C@@H]1NC(=O)[C@@H](Cc2ccccc2)NC(=O)[C@H](CC(=O)O)NC(=O)CNC(=O)[C@H](CCCNC(=N)N)NC1=O)[C@@H]3C [Pyro-MonoRGD] | – | – | – | – | –
